30 compounds from ChEMBL document CHEMBL3217607, “Discovery and structural modification of novel inhibitors of PTP1B inspired by the ACT fragment of scleritodermin A” (Medchemcomm, 2011) can be followed below.

SMILES strings stand for the structures.

The target in assay [1] is T1, Tyrosine-protein phosphatase non-receptor type 11 (Homo sapiens, UniProt Q06124).
T1 sequence (Q06124 whole entry): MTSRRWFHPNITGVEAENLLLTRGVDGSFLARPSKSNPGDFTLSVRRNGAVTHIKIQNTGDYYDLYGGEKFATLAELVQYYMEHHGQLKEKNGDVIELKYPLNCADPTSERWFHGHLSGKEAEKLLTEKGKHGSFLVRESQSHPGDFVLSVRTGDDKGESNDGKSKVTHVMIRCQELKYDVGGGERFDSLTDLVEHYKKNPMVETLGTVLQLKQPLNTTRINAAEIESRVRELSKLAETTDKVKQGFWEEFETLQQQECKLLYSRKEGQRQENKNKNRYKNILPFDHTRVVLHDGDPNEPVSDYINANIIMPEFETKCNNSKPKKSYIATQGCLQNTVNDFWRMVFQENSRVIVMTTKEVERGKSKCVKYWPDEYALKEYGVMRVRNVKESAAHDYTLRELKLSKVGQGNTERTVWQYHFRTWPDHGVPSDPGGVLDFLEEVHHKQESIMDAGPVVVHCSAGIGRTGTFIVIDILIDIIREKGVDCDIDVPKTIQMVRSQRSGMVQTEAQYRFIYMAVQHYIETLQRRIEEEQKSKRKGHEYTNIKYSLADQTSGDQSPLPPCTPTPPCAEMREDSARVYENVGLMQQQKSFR
As to the kind of experiment: Inhibition of SHP2 (unknown origin) using 3-O-Methylfluorescein phosphate as substrate preincubated for 3 mins followed by substrate addition.

The target of assay [2] is T2, Tyrosine-protein phosphatase non-receptor type 1 (Homo sapiens, UniProt P18031).
T2 sequence (P18031 whole entry): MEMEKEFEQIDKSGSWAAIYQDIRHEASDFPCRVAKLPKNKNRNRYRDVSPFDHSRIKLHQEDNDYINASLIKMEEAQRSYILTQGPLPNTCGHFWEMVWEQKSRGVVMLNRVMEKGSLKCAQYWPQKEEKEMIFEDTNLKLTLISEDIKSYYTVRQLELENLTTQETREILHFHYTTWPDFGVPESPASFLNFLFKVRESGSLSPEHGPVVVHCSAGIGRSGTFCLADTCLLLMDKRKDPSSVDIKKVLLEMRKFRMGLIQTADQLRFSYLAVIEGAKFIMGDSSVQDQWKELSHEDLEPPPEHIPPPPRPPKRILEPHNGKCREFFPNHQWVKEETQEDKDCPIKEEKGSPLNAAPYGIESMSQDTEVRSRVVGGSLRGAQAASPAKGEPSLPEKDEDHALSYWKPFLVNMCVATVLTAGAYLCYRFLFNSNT
Description: Inhibition of GST-tagged PTP1B (unknown origin) using pNPP as substrate measured for 2 mins by spectrophotometry.

The target of assay [3] is T3, Tyrosine-protein phosphatase non-receptor type 2 (Homo sapiens, UniProt P17706).
T3 sequence (P17706 whole entry): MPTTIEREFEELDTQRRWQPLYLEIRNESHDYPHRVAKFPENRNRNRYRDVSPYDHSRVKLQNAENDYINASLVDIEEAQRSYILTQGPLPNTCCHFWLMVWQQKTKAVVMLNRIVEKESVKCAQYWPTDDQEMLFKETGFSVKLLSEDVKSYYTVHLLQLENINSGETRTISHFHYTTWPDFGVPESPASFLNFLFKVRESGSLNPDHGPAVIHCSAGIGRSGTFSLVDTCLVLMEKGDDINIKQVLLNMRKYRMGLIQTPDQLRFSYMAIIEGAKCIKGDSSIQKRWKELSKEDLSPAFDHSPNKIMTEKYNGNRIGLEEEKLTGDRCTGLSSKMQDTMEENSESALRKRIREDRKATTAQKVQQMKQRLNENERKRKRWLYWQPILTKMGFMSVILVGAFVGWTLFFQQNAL
Description: Inhibition of TCPTP (unknown origin).

Assay [4] deals with Tyrosine-protein phosphatase non-receptor type 6 (Homo sapiens, UniProt P29350). Description: Inhibition of SHP1 (unknown origin) using 3-O-Methylfluorescein phosphate as substrate preincubated for 3 mins followed by substrate addition.
The target of assay [5] is T4, M-phase inducer phosphatase 2 (Homo sapiens, UniProt P30305).
T4 sequence (P30305 whole entry): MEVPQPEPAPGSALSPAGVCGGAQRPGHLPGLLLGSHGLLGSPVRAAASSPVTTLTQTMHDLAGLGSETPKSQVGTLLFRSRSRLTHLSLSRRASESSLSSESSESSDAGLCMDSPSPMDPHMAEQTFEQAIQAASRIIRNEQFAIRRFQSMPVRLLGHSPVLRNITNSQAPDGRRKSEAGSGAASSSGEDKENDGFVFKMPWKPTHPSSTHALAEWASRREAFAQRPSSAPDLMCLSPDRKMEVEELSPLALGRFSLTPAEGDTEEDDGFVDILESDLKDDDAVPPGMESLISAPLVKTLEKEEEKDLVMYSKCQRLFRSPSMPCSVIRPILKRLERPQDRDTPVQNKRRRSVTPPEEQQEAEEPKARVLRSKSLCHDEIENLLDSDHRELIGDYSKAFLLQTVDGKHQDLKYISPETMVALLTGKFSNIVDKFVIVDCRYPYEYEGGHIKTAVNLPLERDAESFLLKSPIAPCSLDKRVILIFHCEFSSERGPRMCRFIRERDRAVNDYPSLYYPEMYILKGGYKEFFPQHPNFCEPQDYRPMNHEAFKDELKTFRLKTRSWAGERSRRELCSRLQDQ
As to the kind of experiment: Inhibition of CDC25B (unknown origin) using 3-O-Methylfluorescein phosphate as substrate preincubated for 3 mins followed by substrate addition.

The target of assay [6] is Receptor-type tyrosine-protein phosphatase F (Homo sapiens, UniProt P10586). As to the kind of experiment: Inhibition of LAR (unknown origin) using 3-O-Methylfluorescein phosphate as substrate preincubated for 3 mins followed by substrate addition.
Sequence of Receptor-type tyrosine-protein phosphatase F (P10586 whole entry): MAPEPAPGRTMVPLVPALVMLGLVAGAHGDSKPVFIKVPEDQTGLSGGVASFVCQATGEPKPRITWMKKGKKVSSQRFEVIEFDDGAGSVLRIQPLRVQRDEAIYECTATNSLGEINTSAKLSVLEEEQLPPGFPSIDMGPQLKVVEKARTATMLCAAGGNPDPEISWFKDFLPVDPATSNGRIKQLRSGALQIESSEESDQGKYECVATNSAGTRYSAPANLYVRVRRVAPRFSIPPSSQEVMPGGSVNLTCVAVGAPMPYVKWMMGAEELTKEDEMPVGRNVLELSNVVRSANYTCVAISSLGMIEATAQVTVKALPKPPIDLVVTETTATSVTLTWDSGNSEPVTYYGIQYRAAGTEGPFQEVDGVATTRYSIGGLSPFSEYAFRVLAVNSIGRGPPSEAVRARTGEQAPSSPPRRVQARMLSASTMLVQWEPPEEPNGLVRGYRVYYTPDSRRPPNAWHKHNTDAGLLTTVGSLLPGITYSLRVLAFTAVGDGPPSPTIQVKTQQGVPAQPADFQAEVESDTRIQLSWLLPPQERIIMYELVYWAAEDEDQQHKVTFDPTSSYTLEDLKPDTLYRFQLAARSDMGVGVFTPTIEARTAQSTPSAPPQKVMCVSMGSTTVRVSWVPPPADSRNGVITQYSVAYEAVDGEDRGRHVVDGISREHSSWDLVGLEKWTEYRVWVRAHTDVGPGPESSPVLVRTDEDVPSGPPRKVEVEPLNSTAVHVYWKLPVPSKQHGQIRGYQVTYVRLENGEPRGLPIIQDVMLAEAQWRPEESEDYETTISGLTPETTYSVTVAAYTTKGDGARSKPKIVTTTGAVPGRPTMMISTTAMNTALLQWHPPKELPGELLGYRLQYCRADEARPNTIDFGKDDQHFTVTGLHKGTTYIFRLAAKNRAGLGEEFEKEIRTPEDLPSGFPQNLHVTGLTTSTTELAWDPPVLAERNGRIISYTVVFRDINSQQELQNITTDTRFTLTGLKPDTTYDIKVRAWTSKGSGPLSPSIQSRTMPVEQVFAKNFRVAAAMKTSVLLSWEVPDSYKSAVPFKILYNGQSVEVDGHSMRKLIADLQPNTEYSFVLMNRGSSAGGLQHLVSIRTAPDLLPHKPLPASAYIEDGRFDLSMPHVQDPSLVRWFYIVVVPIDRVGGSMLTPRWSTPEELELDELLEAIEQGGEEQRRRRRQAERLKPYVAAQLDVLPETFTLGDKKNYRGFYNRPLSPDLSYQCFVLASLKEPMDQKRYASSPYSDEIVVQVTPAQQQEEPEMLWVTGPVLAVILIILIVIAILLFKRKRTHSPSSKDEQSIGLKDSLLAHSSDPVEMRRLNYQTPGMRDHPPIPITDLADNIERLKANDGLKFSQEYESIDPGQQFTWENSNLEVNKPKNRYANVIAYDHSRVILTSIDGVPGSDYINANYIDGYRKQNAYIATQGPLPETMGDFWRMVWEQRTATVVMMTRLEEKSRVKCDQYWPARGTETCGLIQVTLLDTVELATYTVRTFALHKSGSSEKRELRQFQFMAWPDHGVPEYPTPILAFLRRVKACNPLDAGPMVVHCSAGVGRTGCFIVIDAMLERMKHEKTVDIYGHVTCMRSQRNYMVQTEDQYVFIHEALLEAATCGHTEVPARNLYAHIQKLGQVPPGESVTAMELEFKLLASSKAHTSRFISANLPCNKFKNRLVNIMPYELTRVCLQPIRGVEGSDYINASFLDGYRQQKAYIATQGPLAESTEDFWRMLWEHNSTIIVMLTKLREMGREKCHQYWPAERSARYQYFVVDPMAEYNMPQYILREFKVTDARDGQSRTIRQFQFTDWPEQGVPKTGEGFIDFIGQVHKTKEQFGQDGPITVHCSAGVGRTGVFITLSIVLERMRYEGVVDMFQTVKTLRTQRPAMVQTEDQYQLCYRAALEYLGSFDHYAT

Sequence of Tyrosine-protein phosphatase non-receptor type 6 (P29350 whole entry): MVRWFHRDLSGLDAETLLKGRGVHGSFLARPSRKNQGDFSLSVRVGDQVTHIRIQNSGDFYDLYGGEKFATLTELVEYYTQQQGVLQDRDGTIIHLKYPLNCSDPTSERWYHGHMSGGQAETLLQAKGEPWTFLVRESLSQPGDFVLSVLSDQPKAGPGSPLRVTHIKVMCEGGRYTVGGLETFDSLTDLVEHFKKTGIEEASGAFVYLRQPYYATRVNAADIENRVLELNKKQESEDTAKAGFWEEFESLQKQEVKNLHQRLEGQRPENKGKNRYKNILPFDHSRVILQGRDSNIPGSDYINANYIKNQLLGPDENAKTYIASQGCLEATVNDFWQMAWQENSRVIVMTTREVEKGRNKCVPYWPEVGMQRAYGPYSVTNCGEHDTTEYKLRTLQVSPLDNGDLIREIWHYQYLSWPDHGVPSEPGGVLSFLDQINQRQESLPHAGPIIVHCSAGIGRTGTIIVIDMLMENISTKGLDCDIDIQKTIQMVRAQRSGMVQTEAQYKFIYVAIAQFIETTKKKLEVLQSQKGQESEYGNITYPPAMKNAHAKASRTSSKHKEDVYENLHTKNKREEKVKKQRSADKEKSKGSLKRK

`CCOC(=O)/C(C)=C\C(C)=C\c1csc([C@H](Cc2ccc(OCc3ccccc3)cc2)NC(=O)C2CCCCC2)n1`: the IC50 is more than 20 µM in assay [1]; 9.32 µM in assay [2]; 15.6 µM in assay [3]; more than 20 µM in assay [4]; 3.92 µM in assay [5]; more than 20 µM in assay [6].

For `CCOC(=O)/C(C)=C\C(C)=C/c1csc([C@H](Cc2ccc(OCc3ccccc3)cc2)NC(=O)C2CCCCC2)n1`, the IC50 in assay [2] turned out to be 13 µM.

Turning to `CCOC(=O)/C(C)=C\C(C)=C\c1csc([C@H](Cc2ccc(OCc3ccccc3)cc2)NC(=O)C2CC2)n1`, half-maximal inhibition in assay [2] (IC50) was put at 19.9 µM.

On to `CCOC(=O)/C(C)=C\C(C)=C\c1csc([C@H](Cc2ccc(OCc3ccccc3)cc2)NC(=O)c2ccccc2)n1`, for which, in assay [2], the IC50 was more than 36 µM.

In the case of `COC(=O)CCNC(=O)/C(C)=C\C(C)=C\c1csc(C(Cc2ccc(OCc3ccccc3)cc2)NC(=O)OC(C)(C)C)n1` (single isomer, unassigned), the IC50 in assay [2] turned out to be 15.9 µM.

In assay [2], `CCOC(=O)/C(C)=C\c1csc([C@H](Cc2ccc(OCc3ccccc3)cc2)NC(=O)C2CCCCC2)n1` came in with an IC50 of more than 40 µM.

Regarding `CCOC(=O)CCCCOC(=O)/C(C)=C\C(C)=C\c1csc(C(Cc2ccc(OCc3ccccc3)cc2)NC(=O)OC(C)(C)C)n1` (single isomer, unassigned), in assay [2], the IC50 was 9.66 µM.

In assay [2], `CCOC(=O)/C(C)=C\C(C)=C\c1csc([C@H](Cc2ccc(OCc3ccccc3)cc2)NC(=O)c2ccco2)n1` yielded an IC50 of 18 µM.

On to `CCOC(=O)COC(=O)/C(C)=C\C(C)=C\c1csc(C(Cc2ccc(OCc3ccccc3)cc2)NC(=O)OC(C)(C)C)n1` (single isomer, unassigned), for which the IC50 in assay [2] worked out at 7.1 µM.

As to `CCOC(=O)COC(=O)/C(C)=C\C(C)=C\c1csc([C@H](Cc2ccc(OCc3ccccc3)cc2)NC(=O)Cc2c[nH]c3ccccc23)n1`, the IC50 in assay [1] was more than 20 µM; in assay [2] it was 5.94 µM; in assay [3], 14 µM; in assay [4] it was more than 20 µM; in assay [5] it was 2.83 µM; in assay [6] it was more than 20 µM.

For the compound `C=CCOC(=O)N[C@@H](COC(=O)/C(C)=C\C(C)=C\c1csc([C@H](Cc2ccc(OCc3ccccc3)cc2)NC(=O)OC(C)(C)C)n1)C(=O)N1CCC[C@H]1C(=O)OC(C)(C)C`, the IC50 in assay [2] was 4.42 µM; in assay [3] it was 3.95 µM.

As to `CCOC(=O)C(C)CC(C)Cc1csc([C@H](Cc2ccc(OCc3ccccc3)cc2)NC(=O)C2CCCCC2)n1` (stereo partly specified), the IC50 in assay [2] was more than 40 µM.

Turning to `CC(=O)N[C@@H](Cc1c[nH]c2ccccc12)C(=O)N[C@@H](Cc1ccc(OCc2ccccc2)cc1)c1nc(/C=C(C)/C=C(/C)C(=O)OCC(=O)O)cs1`, the IC50 in assay [1] was more than 20 µM; in assay [2] it was 3.01 µM; in assay [3], 17.7 µM; in assay [4] it was more than 20 µM; in assay [5], 5.41 µM; in assay [6] it was more than 20 µM.

The compound `CCOC(=O)c1csc([C@H](Cc2ccc(OCc3ccccc3)cc2)NC(=O)C2CCCCC2)n1` showed an IC50 in assay [2] of more than 40 µM.

For `CCOC(=O)COC(=O)/C(C)=C\C(C)=C\c1csc([C@H](Cc2ccc(OCc3ccccc3)cc2)NC(=O)CCCc2c[nH]c3ccccc23)n1`, the IC50 was more than 20 µM in assay [1]; 3.05 µM in assay [2]; 12.7 µM in assay [3]; more than 20 µM in assay [4]; 2.55 µM in assay [5]; more than 20 µM in assay [6].

Take `C/C(=C/C(C)=C/c1csc([C@H](Cc2ccc(OCc3ccccc3)cc2)NC(=O)[C@H](Cc2c[nH]c3ccccc23)NC(=O)OC(C)(C)C)n1)C(=O)OCC(=O)O`: the IC50 in assay [1] is more than 20 µM; in assay [2] it was 1.6 µM; in assay [3], 4.53 µM; in assay [4], more than 20 µM; in assay [5], 3.38 µM; in assay [6] it was more than 20 µM.

Turning to `CCOC(=O)/C(C)=C/c1csc([C@H](Cc2ccc(OCc3ccccc3)cc2)NC(=O)C2CCCCC2)n1`, in assay [2], the IC50 is more than 40 µM.

`C/C(=C/C(C)=C/c1csc([C@H](Cc2ccc(OCc3ccccc3)cc2)NC(=O)Cc2c[nH]c3ccccc23)n1)C(=O)OCC(=O)O`: the IC50 in assay [1] was more than 20 µM; in assay [2], 3.68 µM; in assay [3] it was 9.98 µM; in assay [4] it was more than 20 µM; in assay [5], 4.88 µM; in assay [6], more than 20 µM.

`C/C(=C/C(C)=C/c1csc([C@H](Cc2ccc(OCc3ccccc3)cc2)NC(=O)CCCc2c[nH]c3ccccc23)n1)C(=O)OCC(=O)O`: the IC50 in assay [1] was more than 20 µM; in assay [2] it was 2.45 µM; in assay [3] it was 11.1 µM; in assay [4], more than 20 µM; in assay [5], 4.38 µM; in assay [6] it was more than 20 µM.

For the compound `CCOC(=O)COC(=O)/C(C)=C\C(C)=C\c1csc([C@H](Cc2ccc(OCc3ccccc3)cc2)NC(=O)[C@H](Cc2c[nH]c3ccccc23)NC(=O)OC(C)(C)C)n1`, the IC50 in assay [2] is 5.6 µM.

Take `CCOC(=O)/C(C)=C\C(C)=C\c1csc([C@H](Cc2ccc(OCc3ccccc3)cc2)NC(=O)C(C)C)n1`: in assay [2], the IC50 was determined as 16.1 µM.

The compound `CCOC(=O)CCCOC(=O)/C(C)=C\C(C)=C\c1csc(C(Cc2ccc(OCc3ccccc3)cc2)NC(=O)OC(C)(C)C)n1` (single isomer, unassigned) displayed an IC50 in assay [2] of 12.5 µM.

`CCOC(=O)CNC(=O)/C(C)=C\C(C)=C\c1csc(C(Cc2ccc(OCc3ccccc3)cc2)NC(=O)OC(C)(C)C)n1` (single isomer, unassigned) gave an IC50 in assay [2] of 12.4 µM.

`CCOC(=O)/C(C)=C/C(C)=C\c1csc([C@H](Cc2ccc(OCc3ccccc3)cc2)NC(=O)C2CCCCC2)n1` registered an IC50 in assay [2] of 23.9 µM.

As for `CCOC(=O)COC(=O)/C(C)=C\C(C)=C\c1csc([C@H](Cc2ccc(OCc3ccccc3)cc2)NC(=O)[C@H](Cc2c[nH]c3ccccc23)NC(C)=O)n1`, the IC50 in assay [1] is more than 20 µM; in assay [2], 2.08 µM; in assay [3], 8.84 µM; in assay [4], more than 20 µM; in assay [5], 2.4 µM; in assay [6] it was more than 20 µM.

`CCCCC(=O)N[C@@H](Cc1ccc(OCc2ccccc2)cc1)c1nc(/C=C(C)/C=C(/C)C(=O)OCC)cs1`: 11.4 µM corresponded to half-maximal inhibition in assay [2] (IC50).

For `CCOC(=O)/C(C)=C\C(C)=C\c1csc([C@H](Cc2ccc(OCc3ccccc3)cc2)NC(=O)c2cc3ccccc3s2)n1`, in assay [2], half-maximal inhibition (IC50) required 9.44 µM.

In assay [2], `CCOC(=O)/C(C)=C/C(C)=C/c1csc([C@H](Cc2ccc(OCc3ccccc3)cc2)NC(=O)C2CCCCC2)n1` showed an IC50 of 19 µM.

Compound `CCOC(=O)/C(C)=C\C(C)=C\c1csc([C@H](Cc2ccc(OCc3ccccc3)cc2)NC(=O)C2CCCC2)n1` gave an IC50 in assay [2] of 17.9 µM.

The compound `CCOC(=O)/C(C)=C\C(C)=C\c1csc([C@H](Cc2ccc(OCc3ccccc3)cc2)NC(=O)c2ccc(F)cc2)n1` had an IC50 in assay [2] of 8.92 µM.

By IC50 is commonly meant the concentration needed to halve the response being measured. A high value points to weaker potency.
